The text below walks through data of PMC12040169 (PLOS Biology, 2025).

This data set in a line: in vitro. The following applies: human, hela cells, % viability.

In general, viability refers to a read-out of living cells in per cent, often relative to untreated cells. For the molecule `CCOC(=O)c1cnn(C)c1-c1ccc(F)cc1OC` [CBK149233], the viability at 28.5 h, 10 µM came out at 92.8%. Next, `CCOC(=O)c1cccnc1-c1cncnc1` [CBK149236]: 118%. Next, `CCOC(=O)c1cccnc1-c1cccc(C(N)=O)c1` [CBK149239]: 96%; `CCOC(=O)c1cccnc1-c1ccc(Cl)c(Cl)c1` [CBK149241]: 92.1%; `CCOC(=O)c1cccnc1-c1ccc(S(C)(=O)=O)cc1` [CBK149242]: 105%. Consider `CCOC(=O)c1cccc(-c2cc3ccccc3o2)n1` [CBK149243], for which the viability at 28.5 h, 10 µM is 114%.

As for `CCOC(=O)c1cccc(-c2ccc(F)cc2F)n1` [CBK149245], the viability at 28.5 h, 10 µM turned out to be 101%.

For the molecule `CCOC(=O)c1cccc(-c2ccc(OC(F)(F)F)cc2)n1` [CBK149251], the viability at 28.5 h, 10 µM amounted to 96.6%. The figure for `c1ccc(-c2nc(C3CC3)n3ccccc23)cc1` [CBK149257] is 94.1%. Next, `c1ccc(-c2nc(C3CCCC3)n3ccccc23)cc1` [CBK149260]: 93.3%; `COc1cccc2sc(NC(=O)CCCN(C)C)nc12` [CBK149261]: 93%; `COc1cccc2sc(NC(=O)c3ccc4occc4c3)nc12` [CBK149278]: 96.8%. Next, `COc1cccc2sc(NC(=O)CN3CCOCC3)nc12` [CBK149281]: 98.8%; `COc1cccc2sc(NC(=O)c3c(F)cccc3F)nc12` [CBK149283]: 95.5%; `COc1cccc2sc(NC(=O)Cc3ccccc3)nc12` [CBK149284]: 103%. As to `CN(C)CCCC(=O)NCc1ccc(-c2csnn2)cc1` [CBK149288], the viability at 28.5 h, 10 µM was 91%.

For `O=C(NCc1ccc(-c2csnn2)cc1)c1cccc(C(F)(F)F)c1` [CBK149293], the viability at 28.5 h, 10 µM was 87.2%. With `CSCCC(=O)NCc1ccc(-c2csnn2)cc1` [CBK149304], the viability at 28.5 h, 10 µM was 83.2%. Next, `COc1cc(C(=O)NCc2ccc(-c3csnn3)cc2)cc(OC)c1OC` [CBK149308]: 87%; `O=C(COc1cccnc1)NCc1ccc(-c2csnn2)cc1` [CBK149312]: 93.1%; `COc1ccc2[nH]cc(CC(=O)NCc3ccc(-c4csnn4)cc3)c2c1` [CBK149313]: 82.7%. The figure for `Cc1cc(C(=O)NCc2ccc(-c3csnn3)cc2)n[nH]1` [CBK149314] is 88.8%; for `CCN(CC)CCNC(=O)c1c(C)[nH]c(/C=C2\C(=O)Nc3ccc(F)cc32)c1C` [CBK149343] it is 50.7%; for `CS(=O)(=O)c1ccc(Cn2cc(CN3CCC(Sc4ccccn4)CC3)nn2)cc1` [CBK149475] it is 98.4%. Next, `CC(=O)Nc1ccc(-n2cc(CN3CCC(Sc4ccccn4)CC3)nn2)cc1` [CBK149476]: 99.5%; `CC(=O)Nc1ccc(-n2cc(COC3CCN(C(=O)OC(C)(C)C)CC3)nn2)cc1` [CBK149481]: 121%. Regarding `CC(=O)Nc1ccc(-c2cccc(COC3CCN(C(=O)c4ccc(OC(C)C)cc4)CC3)c2)cc1` [CBK149485], the viability at 28.5 h, 10 µM was 100%. `CC(=O)Nc1ccc(-c2cccc(COC3CCN(C(=O)Cc4ccc(Cl)c(Cl)c4)CC3)c2)cc1` [CBK149487]: the viability at 28.5 h, 10 µM worked out at 109%. The figure for `CC(=O)Nc1ccc(-c2cccc(COC3CCN(C(=O)Cc4c[nH]cn4)CC3)c2)cc1` [CBK149497] is 103%; for `CS(=O)(=O)c1ccc(-c2cccc(COC3CCN(C(=O)Cc4ccc(F)cc4F)CC3)c2)cc1` [CBK149506] it is 87.8%. `CS(=O)(=O)c1ccc(-c2cccc(COC3CCN(C(=O)Cc4cccc5ccccc45)CC3)c2)cc1` [CBK149510]: the viability at 28.5 h, 10 µM is 90.6%. The figure for `CS(=O)(=O)c1ccc(-c2cccc(COC3CCN(C(=O)Cc4ccc(C#N)cc4)CC3)c2)cc1` [CBK149513] is 96.3%. Regarding `Cc1cc(CNC(=O)C2(c3ccccc3)CCCC2)no1` [CBK149518], the viability at 28.5 h, 10 µM was found to be 103%.

As for `Cc1cc(Cl)ccc1CNC(=O)C1(c2ccccc2)CCCC1` [CBK149519], the viability at 28.5 h, 10 µM is 88.6%. Take `O=C(NCc1ccc2occc2c1)C1(c2ccccc2)CCCC1` [CBK149525]: the viability at 28.5 h, 10 µM turned out to be 116%. Next, `O=C(NCc1c(F)cccc1F)C1(c2ccccc2)CCCC1` [CBK149527]: 91.7%. As for `CN(C)CC(C)(C)CNC(=O)C1(c2ccccc2)CCCC1` [CBK149532], the viability at 28.5 h, 10 µM came to 107%.

As for `O=C(NCc1cccs1)C1(c2ccccc2)CCCC1` [CBK149533], the viability at 28.5 h, 10 µM was found to be 103%. On to `O=C(NC(c1ccccc1)c1ccccc1)C1(c2ccccc2)CCCC1` [CBK149536], for which the viability at 28.5 h, 10 µM was found to be 96.8%. Take `O=C(NCc1ccco1)C1(c2ccccc2)CCCC1` [CBK149539]: the viability at 28.5 h, 10 µM amounted to 96%. The figure for `O=C(NCc1cccs1)c1ccccc1Nc1cccc(C(F)(F)F)c1` [CBK149557] is 104%; for `CS(=O)(=O)c1ccc(CNC(=O)c2ccccc2Nc2cccc(C(F)(F)F)c2)cc1` [CBK149580] it is 92%; for `CC(C)c1ccc(/C=C/C(=O)NCc2cccs2)cc1` [CBK149587] it is 100%. The figure for `COc1ccc(OCCNC(=O)c2ccccc2-n2cccc2)cc1` [CBK149592] is 95.6%. The figure for `CN(C)CC(C)(C)CNC(=O)c1ccccc1-n1cccc1` [CBK149600] is 92.3%; for `O=C(NCc1cccnc1)c1ccccc1-n1cccc1` [CBK149602] it is 92.3%. Consider `O=C(NCC1CCCCC1)c1ccccc1-n1cccc1` [CBK149603], for which the viability at 28.5 h, 10 µM came out at 91.7%. Next, `O=C(c1ccccc1-n1cccc1)N1CCCC1` [CBK149608]: 81.6%; `CCOC(=O)CCNC(=O)c1ccccc1-n1cccc1` [CBK149611]: 95.3%. Next, `Cc1cc(CNC(=O)/C=C/c2ccc(C(C)C)cc2)no1` [CBK149614]: 103%; `CC(C)c1ccc(/C=C/C(=O)NCc2ccc3occc3c2)cc1` [CBK149620]: 93.3%; `Cc1cnc(CNC(=O)/C=C/c2ccc(C(C)C)cc2)cn1` [CBK149625]: 99.4%. `CC(C)c1ccc(/C=C/C(=O)NCCc2c[nH]cn2)cc1` [CBK149629]: the viability at 28.5 h, 10 µM was 101%. The figure for `CC(C)c1ccc(/C=C/C(=O)NCc2ccccc2)cc1` [CBK149635] is 112%; for `CCN(CC)C(=O)/C=C/c1ccc(C(C)C)cc1` [CBK149636] it is 93.1%; for `COc1ccc2[nH]cc(CCNC(=O)/C=C/c3ccc(C(C)C)cc3)c2c1` [CBK149639] it is 91.7%. Next, `CC(C)c1ccc(/C=C/C(=O)NC2CC2)cc1` [CBK149640]: 105%; `CCOC(=O)CCNC(=O)/C=C/c1ccc(C(C)C)cc1` [CBK149643]: 102%. For the molecule `O=c1[nH]c2ccccc2n1C1CCN(S(=O)(=O)c2cccs2)CC1` [CBK149689], the viability at 28.5 h, 10 µM was 98.4%. Take `O=c1[nH]c2ccccc2n1C1CCN(S(=O)(=O)c2ccc(OC(F)(F)F)cc2)CC1` [CBK149690]: the viability at 28.5 h, 10 µM came to 93.8%. The figure for `Cc1ccc(S(=O)(=O)N2CCC(n3c(=O)[nH]c4ccccc43)CC2)cc1Cl` [CBK149691] is 90.8%; for `O=c1[nH]c2ccccc2n1C1CCN(S(=O)(=O)c2cc(Cl)cc(Cl)c2O)CC1` [CBK149694] it is 81.4%; for `O=S(=O)(Nc1nccnc1Cl)c1ccccc1Cl` [CBK149698] it is 84.3%.

`O=C(C1CCCCC1)N1CCC(n2c(=O)[nH]c3ccccc32)CC1` [CBK149703]: the viability at 28.5 h, 10 µM worked out at 92.8%. `O=C(c1ccccc1C(F)(F)F)N1CCC(n2c(=O)[nH]c3ccccc32)CC1` [CBK149706]: the viability at 28.5 h, 10 µM is 97%. For `O=C(C1CCC1)N1CCC(n2c(=O)[nH]c3ccccc32)CC1` [CBK149709], the viability at 28.5 h, 10 µM is 108%. Next, `CN(C)Cc1ccc2nc(C(F)(F)F)cc(SCCC(=O)O)c2c1` [CBK149715T]: 91.4%; `CC(=O)Nc1ccc(OCCO)cc1` [CBK149724]: 86.6%. Consider `CN(C)c1ccc2cccc(O)c2n1` [CBK149729], for which the viability at 28.5 h, 10 µM was 93.9%. Consider `COc1ccc(CC(=O)N2CCC(C3OCc4cc(-c5ccc(C(=O)N(C)C)cc5)ccc4O3)CC2)cc1` (stereo not shown) [CBK149759], for which the viability at 28.5 h, 10 µM worked out at 88.2%. Consider `CN(C)C(=O)c1ccc(-c2ccc3c(c2)COC(C2CCN(C(=O)CC4CCCCC4)CC2)O3)cc1` (stereo not shown) [CBK149763], for which the viability at 28.5 h, 10 µM is 114%.

Consider `COc1cccc2cc(C(=O)NCCCN3CCN(C)CC3)oc12` [CBK149788], for which the viability at 28.5 h, 10 µM turned out to be 101%. Consider `COc1cccc2cc(C(=O)NCc3c(F)cccc3F)oc12` [CBK149794], for which the viability at 28.5 h, 10 µM was 65%. As to `COc1cccc2cc(C(=O)NCc3ccc(Cl)c(Cl)c3)oc12` [CBK149795], the viability at 28.5 h, 10 µM came to 85.2%. Next, `COc1cccc2cc(C(=O)NCc3ccc4c(c3)OCO4)oc12` [CBK149797]: 90.9%.

For the molecule `COc1cccc2cc(C(=O)NCCc3ccc(O)cc3)oc12` [CBK149802], the viability at 28.5 h, 10 µM is 93.9%.

For `COc1cccc2cc(C(=O)NCCN3CCOCC3)oc12` [CBK149807], the viability at 28.5 h, 10 µM turned out to be 101%. The figure for `COc1ccc(C2(C(=O)NCCN3CCCC3)CC2)cc1` [CBK149824] is 95.6%; for `COc1ccc(C2(C(=O)NCc3c(F)cccc3F)CC2)cc1` [CBK149826] it is 108%; for `COc1ccc(C2(C(=O)NCc3ccc4c(c3)OCO4)CC2)cc1` [CBK149829] it is 103%. Next, `COc1ccc(C2(C(=O)NCc3cnc(C)cn3)CC2)cc1` [CBK149830]: 98.5%. Next, `COc1ccc(C2(C(=O)NCCc3c[nH]cn3)CC2)cc1` [CBK149834]: 97.8%.
